Values quoted from earlier work, collected in patent US20060264496A1, “Substituted indoline and indole derivatives” (priority 2003, published 2006).

Legend:
[1] = system: amygdala kindling model; settings: complex partial seizures
[2] = system: electrically induced seizures, seizures induced chemically by pentylenetetrazole, picrotoxin and N-methyl-D-aspartate (NMDA), DBA/2 mouse; settings: oral and intraperitoneal administration, rats and mice
[3] = system: kainic acid-induced status epilepticus; settings: rat, following kainic acid-induced status epilepticus
[4] = system: animal models of anxiety-like behaviour; settings: some animal models
[5] = system: hippocampal kindling; settings: rat
[6] = system: animal models of neuropathic pain
[7] = system: epileptic patients; settings: clinical trials
[8] = system: K(+) current in neuronal cells
[9] = system: animal models of ethanol withdrawal syndrome

SMILES | activity in amygdala kindling model [1] | anticonvulsant activity [2] | limbic neurodegeneration and expression of markers of apoptosis [3] | activity in anxiety-like behaviour models [4] | progression of hippocampal kindling [5] | effect in neuropathic pain models [6] | incidence of seizures [7] | activation of K(+) current [8] | effect in ethanol withdrawal syndrome models [9]
CCOC(=O)Nc1ccc(NCc2ccc(F)cc2)cc1N [Retigabine, N-(2-amino-4-(4-fluorobenzylamino)-phenyl)carbamic acid ethyl ester] | active | active | prevent limbic neurodegeneration and the expression of markers of apoptosis | active | delay the progression of hippocampal kindling | beneficial | effectiveness in reducing the incidence of seizures | activate a K(+) current | 
NCC1(CC(=O)O)CCCCC1 [gabapentin] |  |  |  |  |  |  |  |  | very effective
